Values of other authors in patent US6936590B2, “C-aryl glucoside SGLT2 inhibitors and method” (Bristol Myers Squibb Company, priority 2001, dated 2005).

Assays:
human SGLT1 = target: T1, human SGLT1 (Homo sapiens, UniProt P13866); details: read-out: Km values for uptake
T1 sequence (P13866 1-664): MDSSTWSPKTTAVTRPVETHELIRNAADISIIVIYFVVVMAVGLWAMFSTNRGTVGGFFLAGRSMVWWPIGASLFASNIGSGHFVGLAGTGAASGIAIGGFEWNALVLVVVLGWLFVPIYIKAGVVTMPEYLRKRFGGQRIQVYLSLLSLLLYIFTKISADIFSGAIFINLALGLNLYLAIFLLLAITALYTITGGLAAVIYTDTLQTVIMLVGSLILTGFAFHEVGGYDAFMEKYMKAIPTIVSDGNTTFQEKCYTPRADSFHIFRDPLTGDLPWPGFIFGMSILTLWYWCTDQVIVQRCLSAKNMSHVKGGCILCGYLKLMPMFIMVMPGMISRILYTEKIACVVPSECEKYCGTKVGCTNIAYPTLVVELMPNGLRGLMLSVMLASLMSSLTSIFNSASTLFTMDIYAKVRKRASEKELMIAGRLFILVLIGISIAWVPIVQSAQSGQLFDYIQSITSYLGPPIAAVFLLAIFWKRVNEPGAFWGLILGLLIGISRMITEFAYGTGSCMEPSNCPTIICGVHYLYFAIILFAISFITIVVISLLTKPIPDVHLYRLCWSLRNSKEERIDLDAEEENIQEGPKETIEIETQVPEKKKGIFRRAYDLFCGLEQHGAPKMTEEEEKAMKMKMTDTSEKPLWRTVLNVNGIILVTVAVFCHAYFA

human SGLT2 = target: T2, human SGLT2 (Homo sapiens, UniProt P31639); details: read-out: Km values for uptake
T2 sequence (P31639 1-672): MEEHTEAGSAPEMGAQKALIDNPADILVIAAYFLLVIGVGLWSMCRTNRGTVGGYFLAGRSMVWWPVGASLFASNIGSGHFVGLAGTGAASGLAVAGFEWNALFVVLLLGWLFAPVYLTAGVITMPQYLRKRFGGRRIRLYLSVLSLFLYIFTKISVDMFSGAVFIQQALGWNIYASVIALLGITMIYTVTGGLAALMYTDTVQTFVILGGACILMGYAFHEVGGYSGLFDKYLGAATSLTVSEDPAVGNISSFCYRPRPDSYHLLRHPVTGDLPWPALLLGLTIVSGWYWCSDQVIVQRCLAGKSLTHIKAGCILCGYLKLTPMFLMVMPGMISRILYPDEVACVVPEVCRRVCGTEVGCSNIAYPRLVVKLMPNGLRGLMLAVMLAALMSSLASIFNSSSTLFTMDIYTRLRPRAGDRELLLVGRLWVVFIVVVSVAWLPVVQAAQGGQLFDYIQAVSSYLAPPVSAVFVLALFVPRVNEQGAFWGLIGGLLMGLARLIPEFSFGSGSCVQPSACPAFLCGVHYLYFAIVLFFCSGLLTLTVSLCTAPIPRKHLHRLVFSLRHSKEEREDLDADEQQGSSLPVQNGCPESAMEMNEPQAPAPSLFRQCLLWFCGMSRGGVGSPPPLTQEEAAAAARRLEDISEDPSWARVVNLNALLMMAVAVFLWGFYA

Row | SMILES | Km (human SGLT1) [µM] | Km (human SGLT2) [mM] | adverse effects on plasma ion balance, renal function or renal morphology (SGLT activity; phlorizin treatment for as long as two weeks) | effect on glucose excretion and plasma glucose (SGLT activity; several diabetic rodent models and one canine diabetes model)
1 | CO[C@H]1O[C@H](CO)[C@@H](O)[C@H](O)[C@H]1O [AMG, α-methyl-D-glucopyranoside] | 400 | 1.6 |  | 
2 | O=C(CCc1ccc(O)cc1)c1c(O)cc(O)cc1O[C@@H]1O[C@H](CO)[C@@H](O)[C@H](O)[C@H]1O [phlorizin] |  |  | No adverse effects on plasma ion balance, renal function or renal morphology have been observed | promoting glucose excretion, lowering fasting and fed plasma glucose, and promoting glucose utilization without hypoglycemic side effects
